US10561142B2, “Dispersed lactams” (Conopco, Inc., priority 2015, dated 2020)

Assay: Dissolution of lactam / PVP solid dispersion in water (visual, FIG. 1)
Assay type: physicochemical
Details: added to water, amount of lactam equivalent to that in the 1% lactam/PVP solid dispersion
From the text: The inventor(s) have shown that solid dispersion of lactam in PVP confers enhanced aqueous solubility to the lactam. […] Note that this example is a proof of concept, and the lactam used was 4-(4-fluorophenyl)-5-methylene-pyrrol-2-one.
Such solid dispersions dissolve rapidly to give clear solutions.

dissolution in water (aqueous solubility): does not dissolve
SMILES: C=C1NC(=O)C=C1c1ccc(F)cc1 [4-(4-fluorophenyl)-5-methylene-pyrrol-2-one]
